In patent US4705799A, “Aminomethyl oxooxazolidinyl benzenes useful as antibacterial agents” (E. I. Du Pont de Nemours and Company, priority 1985, dated 1987):
Converted amounts (≈) assume the structure as drawn.

Columns and labels:
[1] = system: Staphylococcus epidermidis; test: In vitro broth dilution minimal inhibitory concentration (standard microdilution method); assay type: cell-based; settings: Mueller-Hinton broth, 24-hour; for MIC: 24 h, read-out: Microdilution Broth MIC
[2] = system: Escherichia coli; test: as above; assay type: cell-based; settings: Escherichia coli, Mueller-Hinton broth, 24-hour; for MIC: read-out: Microdilution Broth MIC
[3] = system: Escherichia coli; test: In vivo efficacy of orally administered compounds in mouse intraperitoneal infections; settings: 168 h; mouse i.p. Escherichia coli infection; oral; dosed at infection and 4 h post-infection; 7 days; read-out: ED50 (50 percent effective dose)
Experimental: (§1) Determinations of in vivo efficacy are performed by inoculating mice intraperitoneally with cultures of the infecting organism diluted to produce 90-100% mortality in control animals within twenty-four hours. The diluents used were trypticase soy broth for E. coli and 5% aqueous hog gastric mucin for Staphylococcus aureus infections. The compounds are dissolved or suspended in 0.25% aqueous Methocel® (Methocel®: Hydroxypropyl Methylcellulose E15 Premium, Dow Chemical Company) for oral administration or sterile distilled water containing 5% dimethylsulfoxide (Fisher Scientific Company, Fairlawn, N.J.) for subcutaneous administration. The mice are dosed at the time of infection and again at four hours post-infection. Mortality is recorded daily until test termination seven days post infection and the 50 percent effective dose, ED50, is calculated by the Reed-Muench method (Reed, L. G. and Muench, H., "A simple method of estimating fifty percent end points," American Journal of Hygiene, 27, 493-497 (1938).

[4] = system: Staphylococcus aureus; test: as above; settings: mouse i.p. Staphylococcus aureus infection, oral, dosed at infection and 4 h post-infection, 7 days; for ED50: Staphylococcus aureus, po, 168 h, read-out: ED50 (50 percent effective dose); for ED50 (50 percent effective dose): 10080 min
Experimental: as §1

[5] = system: Staphylococcus aureus; test: In vivo efficacy of compounds administered subcutaneously in mouse intraperitoneal infections; settings: mouse i.p. Staphylococcus aureus infection, subcutaneous, dosed at infection and 4 h post-infection, 7 days; for ED50: sc, 168 h, read-out: ED50 (50 percent effective dose); for ED50 (50 percent effective dose): 10080 min
Experimental: as §1

SMILES | MIC [1] [µg/mL] | MIC [2] [µg/mL] | ED50 [3] [mg/kg] | ED50 [4] [mg/kg] | ED50 [5] [mg/kg] | Microdilution Broth MIC [1] [µg/mL] | Microdilution Broth MIC [2] [µg/mL] | ED50 (50 percent effective dose) [4] [mg/kg] | ED50 (50 percent effective dose) [5] [mg/kg]
C=CC(=O)NCC1CN(c2ccc(C(C)=O)cc2)C(=O)O1 (stereo not shown) [Example 96] | 12.5 (≈ 43.4 µM) | > 50 | 83.2 | 7.9 | – | – | – | – | –
CC(=O)Cc1ccc(N2CC(CNC(C)=O)OC2=O)cc1 (stereo not shown) [Example 99] | 25 (≈ 86.1 µM) | > 200 | – | 77.4 | 20.1 | – | – | – | –
CC(=O)NCC1CN(c2ccc(CC(C)O)cc2)C(=O)O1 (stereo not shown) [Example 100] | 12.5 (≈ 42.8 µM) | > 200 | – | 19.5 | 10.5 | – | – | – | –
C=Cc1ccc(N2CC(CNC(C)=O)OC2=O)cc1 (stereo not shown) [Example 101] | 4 (≈ 15.4 µM) | 128 (≈ 492 µM) | – | 10.6 | 4.8 | – | – | – | –
CC(=O)NCC1CN(c2ccc(C(C)(O)CO)cc2)C(=O)O1 (stereo not shown) [Example 102] | 16 (≈ 51.9 µM) | > 128 | – | 24 | 9 | – | – | – | –
CC(=O)NCC1CN(c2ccc(C(C)(C)C)cc2)C(=O)O1 (stereo not shown) [Example 105] | 1 (≈ 3.44 µM) | > 128 | – | 10.8 | 13.8 | – | – | – | –
CC(=O)NCC1CN(c2ccc(CCCO)cc2)C(=O)O1 (stereo not shown) [Example 107] | 2 (≈ 6.84 µM) | > 128 | – | > 60 | 18.6 | – | – | – | –
CC(=O)NCC1CN(c2ccc(C(F)(F)C(F)(F)F)cc2)C(=O)O1 (stereo not shown) [Example 108] | 2 (≈ 5.68 µM) | > 128 | – | 8.4 | 20.4 | – | – | – | –
COC(=O)NCC1CN(c2ccc(S(=O)(=O)N(C)OC)cc2)C(=O)O1 (stereo not shown) [Example 116] | 12.5 (≈ 33.5 µM) | > 200 | – | 25.9 | 14.9 | – | – | – | –
COC(=O)N(C)CC1CN(c2ccc(S(C)(=O)=O)cc2)C(=O)O1 (stereo not shown) [Example 128] | > 200 | > 200 | – | 62 | 33.6 | – | – | – | –
CC(=O)NCC1CN(c2ccc(C(=O)C(Br)(Br)Br)cc2)C(=O)O1 (stereo not shown) [Example 140] | 4 (≈ 7.8 µM) | 128 (≈ 250 µM) | – | 6.6 | 13.2 | – | – | – | –
CC(=O)NCC1CN(c2ccc(C(=O)C3CCCCC3)cc2)C(=O)O1 (stereo not shown) [Example 141] | 8 (≈ 23.2 µM) | > 128 | – | 40.2 | 20.8 | – | – | – | –
CCc1cc(N2CC(CNC(C)=O)OC2=O)ccc1C(C)=O (stereo not shown) [Example 143] | 16 (≈ 52.6 µM) | > 128 | – | 20.8 | 11.9 | – | – | – | –
CC(=O)NCC1CN(c2ccc([S+]([O-])CCO)cc2)C(=O)O1 (stereo not shown) [Example 168, (l)-N-[3-[4-(2-Hydroxyethylsulfinyl)phenyl]-2-oxo-oxazolidin-5-ylmethyl]acetamide] | – | – | – | – | – | 25.0 | > 200.0 | 49.8 | 24.3
CC(=O)NCC1CN(c2ccc([S+]([O-])CCO)cc2)C(=O)O1 (stereo not shown) [Example 169, (l)-N-[3-[4-(2-Hydroxyethylsulfinyl)phenyl]-2-oxo-oxazolidin-5-ylmethyl]acetamide] | – | – | – | – | – | 50.0 | 200.0 | 99.1 | 12.1
CC(=O)c1ccc(N2CC(CNC(=O)CN)OC2=O)cc1 (stereo not shown) [Example 176] | 32 (≈ 110 µM) | > 128 | – | 30.9 | 11.2 | – | – | – | –
CC(=O)c1ccc(N2CC(CNC(=O)C(F)(F)F)OC2=O)cc1 (stereo not shown) [Example 178] | 16 (≈ 48.4 µM) | > 128 | – | 31.6 | 31.6 | – | – | – | –
CC(=O)NC[C@H]1CN(c2ccc([S@@+](C)[O-])cc2)C(=O)O1 [Example 180] | 4 (≈ 13.5 µM) | 128 (≈ 432 µM) | – | 2.5 | 0.8 | – | – | – | –
CC(=O)NC[C@H]1CN(c2ccc([S@+](C)[O-])cc2)C(=O)O1 [Example 181, (S,S)-N-[3-[4-(Methylsulfinyl)phenyl]-2-oxo-5-oxazolidinylmethyl]acetamide] | 16 (≈ 54 µM) | > 128 | – | 2.8 | 1 | – | – | – | –
